Source: patent US20090281054A1, “COMPOSITIONS AND METHODS COMPRISING CAPURAMYCIN ANALOGUES” (priority 2008, published 2009)
Where two headings read alike, the source gives them in different places.

System: MTB
Assay type: cell-based, Mycobacterium tuberculosis

CCCCCCCCCC(=O)O[C@@H]1[C@H](OC)[C@@H]([C@@H](O[C@H]2OC(C(=O)N[C@H]3CCC[C@@H](C)NC3=O)=C[C@H](O)[C@@H]2O)C(N)=O)O[C@H]1n1ccc(=O)[nH]c1=O [SQ641]
Frequency of mutation: zero | Resistant colonies: no colonies | Frequency of mutation (second experiment, 8 μg/ml SQ641, 1 μg/ml RIF): zero
